Experimental data as given in US8541449B2, “Substituted isoquinolines and isoquinolinones as Rho kinase inhibitors” (Sanofi, priority 2008, dated 2013).

What was measured:
Type in all cases: biochemical
[1] = biological target: T1, human recombinant ROCK II (Homo sapiens, UniProt O75116); test: Determination of Rho kinase inhibition (Caliper peptide phosphorylation assay); details: 60 min at 32° C., negative decadal logarithm of the IC50
T1 construct: N-terminal His6-tagged recombinant human ROCK-II residues 11-552; His6 (N); purchased Millipore GmbH, Schwalbach, Germany
Protocol: Determination of Rho Kinase Inhibition
To measure Rho-kinase inhibition, IC50 values were determined according to the following protocol:
Active human recombinant ROCK II (N-terminal His6-tagged recombinant human ROCK-II residues 11-552) was purchased from Millipore GmbH, Schwalbach, Germany. The peptide substrate, Fluorescein-[…]-COOH, was obtained from JPT Peptide Technologies, Berlin, Germany. Adenosine-5′-triphosphate (ATP), bovine serum albumine (BSA), dimethylsulphoxide (DMSO), 4-(2-Hydroxyethyl)piperazine-1-ethanesulfonic acid (Hepes), Brij-35, dithiothreitol (DTT) and Pluronic F-68 were purchased from Sigma-Aldrich, Munich, Germany. Tris(hydroxymethyl)-aminomethane (Tris), magnesium chloride, NaOH, 1M HCl and EDTA were obtained from Merck Biosciences, Darmstadt, Germany. “Complete” protease inhibitor was from Roche Diagnostics, Mannheim, Germany.
(§1) Test compounds were diluted to the appropriate concentrations in buffer 1 (25 mM Tris-HCl, pH 7.4, 5 mM MgCl2, 2 mM DTT, 0.02% (w/v) BSA, 0.01% Pluronic F-68 and 3% DMSO). The ROCK II enzyme was diluted to a concentration of 100 ng/mL in buffer 2 (25 mM Tris-HCl, pH 7.4, 5 mM MgCl2, 2 mM DTT and 0.02% (w/v) BSA). The peptide substrate and ATP were diluted to concentrations of 3 μM and 120 μM, respectively, in the buffer 2. Two μl of the compound solution were mixed with 2 μl of the diluted enzyme in a 384-well small volume microtiter plate (Greiner, Bio-One, Frickenhausen, Germany), and the kinase reaction was initiated by addition of 2 μl of the solution containing peptide substrate and ATP. After 60 min incubation at 32° C., the reaction was stopped by addition of 20 μl of a solution containing 100 mM Hepes-NaOH, pH 7.4, 0.015% (v/v) Brij-35, 45 mM EDTA and 0.227% chip coating reagent 1 (Caliper Lifescience Inc, Hopkinton, Mass.). Phosphorylation of the substrate peptide was then detected on a Caliper 3000 instrument essentially as described by Pommereau et al (J. Biomol. Screening 9(5), 409-416, 2004). Separation conditions were as follows: Pressure −1.3 psi, upstream voltage −1562 V, downstream voltage −500 V, sample sip time 200 ms. Positive controls (buffer 1 instead of compound) and negative controls (buffer 1 instead of compound and buffer 2 instead of ROCK II) were run in parallel on each plate.
The following products/compounds were tested in said assay by using the respective form (salt or free base) obtained as in the examples described above and the following activities were measured

[2] = biological target: T2, recombinant human PKG1-beta (Homo sapiens, UniProt Q13976); test: Determination of Protein Kinase G inhibition (Caliper peptide phosphorylation assay); details: recombinant human PKG1-beta versus ROCK II
T2 construct: Active recombinant human PKG1-beta (full-length, with N-terminal His-tag); His-tag (N); purchased Millipore GmbH, Schwalbach, Germany
T2 sequence (Q13976 1-686 isoform Q13976-2): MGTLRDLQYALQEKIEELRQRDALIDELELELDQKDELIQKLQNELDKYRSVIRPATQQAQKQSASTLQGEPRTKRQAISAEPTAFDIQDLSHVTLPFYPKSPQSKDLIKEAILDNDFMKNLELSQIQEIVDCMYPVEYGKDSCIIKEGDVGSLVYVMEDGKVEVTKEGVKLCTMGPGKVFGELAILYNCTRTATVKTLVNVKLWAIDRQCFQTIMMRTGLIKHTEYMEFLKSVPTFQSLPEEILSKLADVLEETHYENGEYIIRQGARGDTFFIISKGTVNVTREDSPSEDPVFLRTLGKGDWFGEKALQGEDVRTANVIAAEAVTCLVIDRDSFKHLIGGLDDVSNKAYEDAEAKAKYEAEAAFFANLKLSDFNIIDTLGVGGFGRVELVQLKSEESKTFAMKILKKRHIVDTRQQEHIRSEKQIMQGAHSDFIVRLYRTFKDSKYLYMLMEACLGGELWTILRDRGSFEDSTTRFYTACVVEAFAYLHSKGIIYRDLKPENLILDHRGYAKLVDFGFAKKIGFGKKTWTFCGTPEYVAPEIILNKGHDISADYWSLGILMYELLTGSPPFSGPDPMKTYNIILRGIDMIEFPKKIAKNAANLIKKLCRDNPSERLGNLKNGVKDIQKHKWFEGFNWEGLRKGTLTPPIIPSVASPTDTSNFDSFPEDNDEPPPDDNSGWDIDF
Protocol: (§2) Determination of Protein Kinase A and Protein Kinase G Inhibition
(§3) To measure PKA and PKG1-beta inhibition, IC50 values were determined according to the following protocol:
(§4) Active recombinant human PKG1-beta (full-length, with N-terminal His-tag) was purchased from Millipore GmbH, Schwalbach, Germany. Active recombinant human PKA (residues 1-351, N-terminal His-tag) was obtained from Invitrogen, Karlsruhe, Germany. The peptide substrate, Fluorescein-[…]-COOH, was obtained from JPT Peptide Technologies, Berlin, Germany. Adenosine-5′-triphosphate (ATP), bovine serum albumine (BSA), dimethylsulphoxide (DMSO), 4-(2-Hydroxyethyl)piperazine-1-ethanesulfonic acid (Hepes), Brij-35, dithiothreitol (DTT) and Pluronic F-68 were purchased from Sigma-Aldrich, Munich, Germany. Tris(hydroxymethyl)-aminomethane (Tris), magnesium chloride, NaOH, 1M HCl and EDTA were obtained from Merck Biosciences, Darmstadt, Germany. “Complete” protease inhibitor was from Roche Diagnostics, Mannheim, Germany.
as §1, with “PKG1-beta and PKA were” for “The ROCK II enzyme was”, “concentrations” for “a concentration”, “150 ng/ml and 30 ng/ml, respectively,” for “100 ng/mL”, “2.” for “2 (25 mM Tris-HCl, pH 7.4, 5 mM MgCl2, 2 mM DTT and 0.02% (w/v) BSA).”, “kinase solution)” for “ROCK II)”, “plate. The following products/compounds were tested in said assay by using the respective form (salt or free base) obtained as in the examples described above and the following activities were measured.” for “plate.”

recombinant human PKA = biological target: T3, recombinant human PKA (Homo sapiens, UniProt P17612); test: Determination of Protein Kinase A inhibition (Caliper peptide phosphorylation assay); details: recombinant human PKA versus ROCK II
T3 construct: Active recombinant human PKA (residues 1-351, N-terminal His-tag); His-tag (N); purchased Invitrogen, Karlsruhe, Germany
Protocol: as §2, §3, §4
as §1, with “PKG1-beta and PKA were” for “The ROCK II enzyme was”, “concentrations” for “a concentration”, “150 ng/ml and 30 ng/ml, respectively,” for “100 ng/mL”, “2.” for “2 (25 mM Tris-HCl, pH 7.4, 5 mM MgCl2, 2 mM DTT and 0.02% (w/v) BSA).”, “kinase solution)” for “ROCK II)”, “plate. The following products/compounds were tested in said assay by using the respective form (salt or free base) obtained as in the examples described above and the following activities were measured.” for “plate.”

T1 sequence (O75116 11-552): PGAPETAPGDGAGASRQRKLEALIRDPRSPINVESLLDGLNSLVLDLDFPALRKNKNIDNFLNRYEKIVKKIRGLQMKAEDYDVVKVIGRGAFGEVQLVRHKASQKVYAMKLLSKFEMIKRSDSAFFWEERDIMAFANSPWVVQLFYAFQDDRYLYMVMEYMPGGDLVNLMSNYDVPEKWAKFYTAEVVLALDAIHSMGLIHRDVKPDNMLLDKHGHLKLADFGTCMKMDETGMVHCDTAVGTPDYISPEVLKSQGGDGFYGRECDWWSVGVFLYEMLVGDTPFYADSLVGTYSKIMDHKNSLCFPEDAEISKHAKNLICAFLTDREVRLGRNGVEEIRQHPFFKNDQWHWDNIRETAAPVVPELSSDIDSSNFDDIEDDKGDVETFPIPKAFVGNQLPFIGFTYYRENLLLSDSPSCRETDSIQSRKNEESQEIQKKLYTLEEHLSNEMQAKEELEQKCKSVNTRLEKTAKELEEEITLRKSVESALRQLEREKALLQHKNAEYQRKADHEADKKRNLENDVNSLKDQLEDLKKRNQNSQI

Row | pIC50 [1] | Selectivity against PKG [2] | Selectivity against PKA (recombinant human PKA) | SMILES | IC50 [1]
1 | +++++++ (8.0≦pIC50) | >300 | >1000 | CCC(N)[C@]1(c2ccc(F)c(F)c2)CC[C@H](Oc2cc3cc[nH]c(=O)c3cc2Cl)CC1 (stereo partly drawn) [Example 59, cis-6-[4-(1-Amino-propyl)-4-(3,4-difluoro-phenyl)-cyclohexyloxy]-7-chloro-2H-isoquinolin-1-one] | 
2 | ++++++ (7.0≦pIC50<8.0) | >100 | >300 | CCC(N)C[C@]1(c2ccc(F)cc2)CC[C@H](Oc2cc3cc[nH]c(=O)c3cc2Cl)CC1 (stereo partly drawn) [Example 110, cis-6-[4-(2-Amino-butyl)-4-(4-fluoro-phenyl)-cyclohexyloxy]-7-chloro-2H-isoquinolin-1-one] | 
3 | +++++++ (8.0≦pIC50) | >300 | >1000 | CCC(N)[C@]1(c2ccc(F)c(OC)c2)CC[C@H](Oc2cc3cc[nH]c(=O)c3cc2Cl)CC1 (stereo partly drawn) [Example 62, cis-6-[4-(1-Amino-propyl)-4-(4-fluoro-3-methoxy-phenyl)-cyclohexyloxy]-7-chloro-2H-iso quinolin-1-one] | 
4 |  | >300 | >1000 | Cc1ccc(C(N)C2CCC(Oc3cc4cc[nH]c(=O)c4cc3Cl)CC2)cc1 (single isomer, unassigned) [Example 38, 6-[4-(Amino-p-tolyl-methyl)-cyclohexyloxy]-7-chloro-2H-isoquinolin-1-one] | ≤ 10 nM
5 | +++++++ (8.0≦pIC50) | >1000 | >1000 | CCC(N)[C@]1(c2ccc(OC(F)(F)F)cc2)CC[C@H](Oc2cc3cc[nH]c(=O)c3cc2Cl)CC1 (stereo partly drawn) [Example 70, cis-6-[4-(1-Amino-propyl)-4-(4-trifluoro-methoxy-phenyl)-cyclohexyloxy]-7-chloro-2H-isoquinolin-1-one] | 
6 | +++++++ (8.0≦pIC50) | >300 | >1000 | CCC(N)[C@]1(c2ccc(F)cc2C)CC[C@H](Oc2cc3cc[nH]c(=O)c3cc2Cl)CC1 (stereo partly drawn) [Example 57, cis-6-[4-(1-Amino-propyl)-4-(4-fluoro-2-methyl-phenyl)cyclohexyloxy]-7-chloro-2H-isoquinolin-1-one] | 

Row | SMILES | pIC50 [1] | Selectivity against PKG [2] | Selectivity against PKA (recombinant human PKA) | IC50 [1]
7 | COc1ccc(C(N)[C@H]2CC[C@@H](Oc3cc4cc[nH]c(=O)c4cc3Cl)CC2)cc1 (single isomer, unassigned) [Example 36, 6-{4-[Amino-(4-methoxy-phenyl)-methyl]-cyclohexyloxy}-7-chloro-2H-isoquinolin-1-one] |  | >300 | >300 | 10 to 100 nM
8 | CCC(N)[C@]1(c2cccc(S(C)(=O)=O)c2)CC[C@H](Oc2cc3cc[nH]c(=O)c3cc2Cl)CC1 (stereo partly drawn) [Example 99, cis-6-[4-(1-Amino-propyl)-4-(3-methanesulfonyl-phenyl)-cyclohexyloxy]-7-chloro-2H-isoquinolin-1-one] | +++++++ (8.0≦pIC50) | >100 | >1000 | 
9 | CC(C)CC(N)[C@]1(c2ccccc2)CC[C@@H](Oc2cc3cc[nH]c(=O)c3cc2Cl)CC1 (stereo partly drawn) [Example 20, trans-6-[4-(1-Amino-3-methyl-butyl)-4-phenyl-cyclohexyloxy]-7-chloro-2H-iso quinolin-1-one] | ++++++ (7.0≦pIC50<8.0) | >100 | >100 | 
10 | CC(N)[C@]1(c2ccc(F)cc2)CC[C@@H](Oc2cc3cc[nH]c(=O)c3cc2Cl)CC1 (stereo partly drawn) [Example 13, trans-6-[4-(1-Amino-ethyl)-4-(4-fluoro-phenyl)-cyclohexyloxy]-7-chloro-2H-isoquinolin-1-one] | ++++++ (7.0≦pIC50<8.0) | >100 | >300 | 
11 | CCC(N)[C@]1(c2ccc(F)cc2)CC[C@@H](Oc2cc3cc[nH]c(=O)c3cc2Cl)CC1 (stereo partly drawn) [Example 31, trans-6-[4-(1-amino-propyl)-4-(4-fluoro-phenyl)-cyclohexyloxy]-7-chloro-2H-iso quinolin-1-one] | ++++++ (7.0≦pIC50<8.0) | >100 | >300 | 
